According to patent US9040671B2, “Methods for cancer management targeting Co-029” (Institut National de la Sante et de la Recherche Medicale …, priority 2010, dated 2015):

Tests used:
Is1-Co029 cells = assay: 2D cell motility on collagen I by videomicroscopy, Is1-Co029 cells; format: cell-based, human
Description: Cells and cell culture. The cell lines Isreco1, Isreco2 and Isreco3 were initially derived from a primary human colon cancer surgical specimen (Isreco1)(Duke's C, class III) and its corresponding liver and peritoneal metastases (Cajot et al., 1997). These cells were cultured in Dulbecco's modified Eagle's medium (DMEM) supplemented with 10% FCS, glutamax and antibiotics (all from Invitrogen). For experiments, tissue culture plastics were coated with rat tail Collagen I (BD Biosciences) for 1 hour at 50 μg/ml and rinsed with PBS.
Construction of the Co-029 and CD81 lentiviral vector and transduction of Isreco1 cells. Since Isreco1 cells were not efficiently transfected by using non retroviral methods we constructed the TRIPΔ3-EF1α-Co029 and TRIPΔ3-EF1α-CD81 plasmids by inserting the human Co029 and the human CD81 cDNA coding sequence in TRIPΔ3-EF1α vectors. […]. Is1-Co029 and Is1-CD81 cells were obtained by transducing Isrecol cells twice with concentrated lentiviral particles. Is1-Co029low cells were obtained following a single transduction.
Videomicroscopy. Analysis of 2D cell motility on collagen I films was performed using phase contrast on an inverted microscope (Axiovert 200; Zeiss,Oberkochen, Germany) equipped with an environmental chamber with 5% CO2 in air at 37° C. The microscope was driven by the Metamorph software (Roper Scientific),and images were recorded with a Coolsnap HQ camera (Roper Scientific). Stacks of phase contrast images were collected every 15 min for 24 h at ×200 magnification. Cell migration was quantified using the manual tracking plugin of ImageJ (Rasband, 2007) Raw data were transfered to Excel for speed calculations and statistical analysis was performed by the non parametric Mann-Whitney test in Graphpad. For each position at least 10 cells were analyzed. Experiments were repeated from 2 to 10 times to verify the robustness of the results and the stability of the measurements.
For silencing experiments, motility measures were performed 48 hours after RNAi treatments. […]

p120-catenin = assay: Flow cytometry of p120-catenin in permeabilized cells after RNA silencing; format: cell-based, human; conditions: Is1-Co029 cells on collagen I, 48 hours after silencing
Description: For intracellular cytometry, cells were detached using trypsin or scrapped in PBS (4° C.) then fixed for 20 min at 4° C. with 1% formaldehyde in PBS. After centrifugation, cells were incubated in methanol 100% for 10 min at −20° C. then washed in PBS and stained with 10 μg/ml of primary antibody. After washes in PBS, cells were incubated with 10 μg ml FITC-labelled secondary antibody (Beckman Coulter), washed again three times and immediately analysed.
(§1) RNA silencing. Cells (1-3×10^5 cells in DMEM medium) were reverse transfected with synthetic si-RNA oligonucleotides using Interferrin (Ozyme) according to manufacturer's protocol.
(§2) 6, 12 or 24 well cell culture plates were coated with rat tail collagen I. Plates were rinsed in PBS. One μl of the siRNA (10 μM) oligonucleotide mix was added to 96 μl DMEM without serum and 3-5 μl Interferrin and incubated at room temperature in each well during 20 min to allow formation of transfection complexes. Cells detached by trypsin-EDTA were layered at appropriate concentration in 400 μlDMEM medium with serum (the final concentration of si-RNA was 20 nM).

E-cadherin = assay: Flow cytometry of surface E-cadherin after RNA silencing; format: cell-based, human; conditions: Is1-Co029 cells cultured on collagen I
Description: Immunofluorescence. For flow cytometry analysis of cell surface molecules, cells were detached using a non-enzymatic solution (Invitrogen), washed and stained with 10 μg/ml of primary antibody. After washes in culture medium, cells were incubated with 10 μg/ml-1 FITC-labelled secondary antibody (Beckman Coulter), washed again three times and fixed with 1% formaldehyde in PBS. All incubations were performed for 30 min at 4° C. Analysis of cell-surface staining was performed using a FACScalibur flow cytometer (Becton-Dickinson, San Jose, Calif., USA).
as §1, §2

Is1-Co029 tumor cells = assay: Effect of antiCo-029 antibodies on subcutaneous tumor growth; format: in vivo, mice; conditions: 1 mg i.p. biweekly; for Tumor growth inhibition (T/C %): vs PBS control
Description: Effect of antiCo-029 antibodies on subcutaneous tumor growth. In order to realize the animal experiments, a large amounts of purified mAbs was prepared. The yield of mAb TS29.2 (IgG2b) was of approximately 5 mg purified mAb/ml ascitis. Mice produce a mean of 10 ml ascitis/mouse.
Ascitis were clarified by centrifugation and 0.45 μm filtered. The mAbs were purified by using the Biosepra MEP HyperCel* Hydrophobic Charge Induction Chromatography (HCIC) Sorbent, dialysed against PBS and the purity checked by gel electrophoresis and Coomassie Blue coloration. Fractions were aliquoted and frozen at −20° C.
The effect of the antibodies on tumor growth was evaluated by subcutaneous implantation of tumor cells issued from colon carcinoma cell lines, followed by repeated injections of monoclonal antibodies with appropriate controls.
Ten Nude mice were injected subcutaneously with 10^7 Is1-Co029 tumor cells and divided in two groups, antibody treated and PBS control. Each group received an i.p. injection of either 1 mg Ts29.2 or the same volume of PBS and biweekly subsequent injections of 1 mg Ts29.2 or PBS i.p., for a total of nine injections. The size of the tumor was determined by the formula (π/6×length×width×thickness).
Tumor growth inhibition (T/C %) was defined as the ratio of the median tumor volume for the treated vs. control group. It will be calculated as T/C %=[(median tumor volume of treated group at day X)/(median tumor volume of control group at day X)]×100.

With “si-Co029: si-RNA to Co-029, GGUAUCCUAGGAGCUGUUUdTdT (SEQ ID NO: 10) (listed as RNA, chemistry not fully specified)” the “effect on the acceleration of Is1-Co029 cells induced by si-p120, in words” value (Is1-Co029 cells; cells silenced for p120ctn) was “reversed” and the “effect on the increased motility induced by si-Ecad, in words” value (Is1-Co029 cells; co-silencing with si-Ecad) was “suppressed”.

In the case of “si-RhoA: si-RNA to RhoA, GAACUAUGUGGCAGAUAUCdTdT (SEQ ID NO: 23), Dharmacon (listed as RNA, chemistry not fully specified) [reference compound]”, the “effect on motility of Is1-Co029 cells, in words” value (Is1-Co029 cells; sparse cells on collagen I, agent alone) is reported as “same effect on motility as p120-catenin silencing”.

With “si-p120: si-RNA to p120ctn; si-p120a GCCAGAGGUGGUUCGGAUAdTdT (SEQ ID NO: 20) used throughout the study (listed as RNA, chemistry not fully specified)” the “reduction of the amount of p120ctn” value (p120-catenin) was 80% and the “reduction of surface E-cadherin” value (E-cadherin) was 50%.

B1: Ts29.2: murine monoclonal antibody against Co-029 obtainable from hybridoma CNCM I-4047; VH SEQ ID NO: 1, VL SEQ ID NO: 5 (antibody, V domains shown)
VH: EVKVVESGGGLVQPGGSLRLSCATSGFTFTDYYMSWVRQPPGKALEWLGFIRNRVSGYTTEYSASVQGRFTISRDNSQSILYLQMNTLRAEDSATYYCARDHYGNFAMDYWGQGTSVTVSS
VL: DIQMTQSSSSFSVSLGDRVTITCKASEDIYNRLAWYQQKPGNAPRLLISGATSLETGVPSRFSGSGSGKDYTLSITSLQTEDVASYYCQQYWSTPFTFGSGTKLEIK
modifications: Synthetic VH; Synthetic VL
For B1, the “growth of Is1-Co029 cells (subcutaneous tumor), in words” value (Is1-Co029 tumor cells; Nude mice) was “inhibits significantly”, the “Tumor growth inhibition (T/C %)” value (Is1-Co029 tumor cells; day 43 (J43), nine injections) was 36% and the “Tumor growth inhibition (T/C %)” value (Is1-Co029 tumor cells; day 50 (J50), nine injections) was 35%. For the same molecule, the mean tumor size (Is1-Co029 tumor cells; day 50, nine injections, PBS control 557±141.6) was 195.7±47.7 mm^3.
